Test results published in article PMC10548512 (Chemical Science, 2023).

Assays:
[1] = tested on: H1N1pdm09 virus (A/Netherlands/602/2009)
H1 ectodomain = conditions: pH 7.5

| Compound | Infection inhibition in single-concentration screen [1] | Competition with fluorescein-labelled S5 for binding to H1 protein (H1 ectodomain) | IC50 ([1]; 1 h) [nM] |
| --- | --- | --- | --- |
| H-CYYFTHSIFNNLIVFHBG-NH2 (sidechain bridge or staple) [M8] | minimal to no activity | showed competition |  |
| H-CLNFQYRRSCILNILNBG-NH2 (disulfide) [M4] | did not show inhibition |  |  |
| CC[C@H](C)[C@@H]1NC(=O)[C@H](CS)NC(=O)[C@H](CO)NC(=O)[C@H](CCCNC(=N)N)NC(=O)[C@H](CCCNC(=N)N)NC(=O)[C@H](Cc2ccc(O)cc2)NC(=O)[C@H](CCC(N)=O)NC(=O)[C@H](Cc2ccccc2)NC(=O)[C@H](CC(N)=O)NC(=O)[C@H](CC(C)C)NC(=O)[C@@H]2CSC(=N2)c2cc(ccn2)C[C@@H](C(=O)NCC(N)=O)NC(=O)[C@H](CC(N)=O)NC(=O)[C@H](CC(C)C)NC(=O)[C@H]([C@@H](C)CC)NC(=O)[C@H](CC(N)=O)NC(=O)[C@H](CC(C)C)NC1=O [M3] | clear infection inhibition | compete | 120 |
